Assay results as given in publication PMC4215196 (Journal of nuclear medicine : official publication, Society …, 2009).

Assays:
[1] = tested on: B16F10 pulmonary metastases; experiment: Biodistribution in B16F10 lung metastases bearing mice; settings: 2 h p.i.
[2] = tested on: B16F10 melanoma lung metastases; experiment: µPET ROI analysis, B16F10 lung metastases model; settings: lungs harboring metastasis
B16F10 melanoma = experiment: Biodistribution in subcutaneous B16F10 tumor bearing mice
A375M tumors = settings: µPET
[3] = In vitro stability in mouse serum; format: in vitro ADME; settings: for percentage of intact probe: 37°C
[4] = µPET ROI analysis, normal lung
B16F10 cells = experiment: In vitro cell uptake in B16F10 cells
B16 melanoma = settings: C57BL6 mice bearing B16 melanoma, 24 h; cited from earlier work
[5] = subcutaneous B16F10 tumor bearing mice, 2 h p.i.

CCN(CC)CCNC(=O)c1ccc([18F])cc1 [^18F-FBZA, ^18F-N-[2-(diethylamino)ethyl]-4-fluoro-Benzamide]
Uptake Ratio Lung / Blood ([1]; lung metastases from 0.2 × 10^6 B16F10 cells): 24.7 ± 13.5
Uptake Ratio Lung / Blood ([1]; lung metastases from 0.4 × 10^6 B16F10 cells): 38.9 ± 10.3
lung uptake, µPET ROI analysis ([2]; tumor dose 0.4 × 10^6 B16F10 cells): 9.0 ± 0.4 %ID/g
lung uptake, µPET ROI analysis ([2]; tumor dose 0.8 × 10^6 B16F10 cells): 15.3 ± 1.1 %ID/g
tumor to brain ratio (B16F10 melanoma; B16F10 model, 1 h): 5.14 ± 1.10
lung-to-blood ratio (B16F10 melanoma; B16F10 subcutaneous tumor bearing mice, 2 h): 4.72 ± 0.46
Uptake Ratio Tumor / Blood (B16F10 melanoma; [5]): 34.0 ± 13.2
Uptake Ratio Tumor / Muscle (B16F10 melanoma; [5]): 23.3 ± 10.1
tumor uptake, PET ROI analysis (A375M tumors): 0.86 ± 0.03 %ID/g
percentage of intact probe ([3]; 30 min incubation): 94.1%
percentage of intact probe ([3]; 60 min incubation): 93.5%
percentage of intact probe ([3]; 120 min incubation): 87.8%
percentage of intact probe ([3]; 150 min incubation): 85.1%
Defluorination ([3]; up to 150 min): not observed
lung uptake, µPET ROI analysis [4]: 1.2 ± 0.2 %ID/g
cellular accumulation (B16F10 cells; B16F10 cells pretreated with L-tyrosine (2.0 mM) 24 h, 4°C, 30 minutes): 4.5 ± 0.5%
cell uptake (B16F10 cells; B16F10 cells pretreated with L-tyrosine (2.0 mM) 24 h, 37°C, 30 minutes): 10.7 ± 0.8%
cellular accumulation (B16F10 cells; non-treated B16F10 cells, 2-hour incubation, 4 °C): 0.49 ± 0.03%
cellular accumulation (B16F10 cells; non-treated B16F10 cells, 2-hour incubation, 37 °C): 0.52 ± 0.1%
uptake at 4°C less than cellular uptake at 37°C (B16F10 cells; tyrosine stimulated B16F10 cells, 30 minutes): 58%
fold increase of uptake compared to non-treated B16F10 cells (B16F10 cells; tyrosine stimulated cells, 37°C): 18–25 fold

CCN(CC)CCNC(=O)c1ccc([125I])cc1 [^125I-BZA, N-(2-diethylaminoethy1)-4-^125I-iodo-benzamide]
tumor-to-blood ratio (B16 melanoma): 37.3 ± 6.9
